In patent publication US20200062696A1, “COMPOSITIONS AND METHODS FOR INHIBITING RETICULON 4” (THE REGENTS OF THE UNIVERSITY OF CALIFORNIA, priority 2017, published 2020):

Biological target: T1, pure human RTN4 protein (Homo sapiens, UniProt Q9NQC3)
T1 construct: purchased Fisher Scientific
T1 sequence (Q9NQC3 1-1192): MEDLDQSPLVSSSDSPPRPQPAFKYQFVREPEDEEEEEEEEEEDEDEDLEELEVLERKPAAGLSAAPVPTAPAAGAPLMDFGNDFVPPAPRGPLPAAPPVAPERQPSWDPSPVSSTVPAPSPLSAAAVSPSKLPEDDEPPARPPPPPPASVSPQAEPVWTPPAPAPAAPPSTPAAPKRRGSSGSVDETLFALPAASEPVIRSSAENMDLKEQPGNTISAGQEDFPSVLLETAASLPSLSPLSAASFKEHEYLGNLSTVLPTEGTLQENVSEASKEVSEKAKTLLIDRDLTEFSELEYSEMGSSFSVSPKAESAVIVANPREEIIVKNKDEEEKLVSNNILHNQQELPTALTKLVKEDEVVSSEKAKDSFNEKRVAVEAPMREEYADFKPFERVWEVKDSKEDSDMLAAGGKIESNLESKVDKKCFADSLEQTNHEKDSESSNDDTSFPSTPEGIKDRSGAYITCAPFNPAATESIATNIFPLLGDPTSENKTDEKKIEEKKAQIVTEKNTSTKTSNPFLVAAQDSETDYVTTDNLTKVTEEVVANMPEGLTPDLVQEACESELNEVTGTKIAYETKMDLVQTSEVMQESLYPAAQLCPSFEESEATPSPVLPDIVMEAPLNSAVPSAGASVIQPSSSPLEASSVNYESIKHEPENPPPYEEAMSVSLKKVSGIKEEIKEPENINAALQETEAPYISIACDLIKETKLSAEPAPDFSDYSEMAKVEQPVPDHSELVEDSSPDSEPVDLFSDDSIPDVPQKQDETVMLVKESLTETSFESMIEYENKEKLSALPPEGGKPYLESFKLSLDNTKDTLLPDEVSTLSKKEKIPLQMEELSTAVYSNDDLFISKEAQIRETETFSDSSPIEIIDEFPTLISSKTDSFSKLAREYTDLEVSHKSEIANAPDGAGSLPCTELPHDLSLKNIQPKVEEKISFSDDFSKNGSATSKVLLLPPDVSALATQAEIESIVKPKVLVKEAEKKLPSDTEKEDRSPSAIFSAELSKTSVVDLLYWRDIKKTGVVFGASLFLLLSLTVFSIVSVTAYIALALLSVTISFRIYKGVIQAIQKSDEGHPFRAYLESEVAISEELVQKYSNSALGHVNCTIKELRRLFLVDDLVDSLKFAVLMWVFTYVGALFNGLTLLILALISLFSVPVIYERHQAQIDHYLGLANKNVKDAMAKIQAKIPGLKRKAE
Test: Gel-based ABPP competition against IAyne labeling of pure human RTN4 protein
Format: binding
Details: pure human RTN4 protein, gel-based ABPP
Method: FIGS. 11A-11C. DKM 3-30 and analogs. (FIG. 11A) Structures of DKM 3-30 and analogs. (FIG. 11B) Gel-based ABPP analysis showing competition side-by-side competition studies of DKM 3-30, YP 1-46, and AMR 1-125 against IA-rhodamine labelling of pure human RTN4. Shown are the 50% inhibitory concentration (IC50) values for each compound. (FIG. 11C) Serum-free cell survival of U2OS (48 h) or SW620 (24 h) cells treated with DMSO vehicle or each compound (50 μM). Data in (C) are presented as mean±sem. Significance is expressed as *p<0.001 compared to vehicle-treated controls.
Gel-Based ABPP. Gel-based ABPP methods were performed as previously described^24. Recombinant RTN4 (0.06 μg) protein (RTN4-Fisher Scientific) were pre-treated with DMSO or DKM 3-30, respectively, for 1 h at 37° C. in an incubation volume of 50 μL PBS, and were subsequently treated with IAyne (10 μM final concentration) for 30 min at 37° C. CuAAC was performed to append rhodamine-azide onto IAyne probe-labeled proteins. The samples were separated by SDS/PAGE and scanned using a ChemiDoc MP (Bio-Rad Laboratories, Inc). Inhibition of target labeling was assessed by densitometry using ImageStudio Light software.

In the case of `C=CC(=O)Nc1ccc(Oc2ccc(Cl)cc2)cc1` [DKM 3-30, N-(4-(4-chlorophenoxy)phenyl)acrylamide], the “displacement of IAyne labelling of RTN4” value is reported as “validated this hit”.
